Test results reported in patent US20240382448A1, “METHODS FOR TREATING CORONAVIRUS INFECTION” (priority 2021, published 2024).
Like-named read-outs stand apart in the source and are kept apart here.

Key:
[1] = test system: Calu3 (ATCC, HTB-55) cells; details: average of three replicates, (sample well/aggregated DMSOavg)*100
[2] = test system: SARS-CoV-2 (isolate USA WA1/2020); type: cell-based; details: Calu3 cells, 2 h pretreatment, MOI=0.5, 48 h post-infection, compared to DMSO control

| Compound | Viability ([1]; 0.02 μM) | Viability ([1]; 0.07 μM) | Viability ([1]; 0.21 μM) | Viability ([1]; 0.62 μM) | Viability ([1]; 1.85 μM) | Viability ([1]; 5.56 μM) | Viability ([1]; 16.67 μM) | Viability ([1]; 50.00 μM) | % Infection ([2]; 0.02 μM) [%] | % Infection ([2]; 0.07 μM) [%] | % Infection ([2]; 0.21 μM) [%] | % Infection ([2]; 0.62 μM) [%] | % Infection ([2]; 1.85 μM) [%] | % Infection ([2]; 5.56 μM) [%] | % Infection ([2]; 16.67 μM) [%] | % Infection ([2]; 50.00 μM) [%] |
| --- | --- | --- | --- | --- | --- | --- | --- | --- | --- | --- | --- | --- | --- | --- | --- | --- |
| C[C@H]1[C@H](OC(=O)CCC(=O)O)O[C@@H]2O[C@@]3(C)CC[C@H]4[C@H](C)CC[C@@H]1[C@@]24OO3 [Artesunate] | 95.4 | 102.6 | 100.5 | 97.7 | 95.1 | 92.9 | 91.1 | 78.3 | 110.9 | 90.0 | 80.7 | 44.7 | 18.0 | 14.7 | 16.1 | 4.7 |
| C[C@H]1[C@@H](O)O[C@@H]2O[C@@]3(C)CC[C@H]4[C@H](C)CC[C@@H]1[C@@]24OO3 [Dihydroartemisinin] | – | – | – | – | – | – | – | – | 76.6 | 103.6 | 73.6 | 23.0 | 13.5 | 7.0 | 12.8 | 2.0 |
| COc1cc(-c2oc3cc(O)cc(O)c3c(=O)c2O)ccc1O [Isorhamnetin] | 99.6 | 99.6 | 99.4 | 98.8 | 101.0 | 99.8 | 83.7 | 73.0 | 93.6 | 79.5 | 103.8 | 60.4 | 83.8 | 5.3 | 7.9 | – |
